Reference: patent US11752125B2, “Anti-neuroinflammatory and protective compounds in Achillea fragrantissima” (THE STATE OF ISRAEL MINISTRY OF AGRICULTURE & RURAL …, priority 2013, dated 2023)

What was measured:
primary astrocytes = assay: Protection of astrocytes from H2O2-induced cell death (LDH); type: cell-based, rat; details: LDH 20 h later
Protocol: Primary cultures of astrocytes were prepared from cerebral cortices of 1-2 day-old neonatal Wistar rats as described (Elmann et al., 2011b). Fourteen days old astrocytes were used in the experiments. The research was conducted in accordance with the NIH guide for the care and use of laboratory animals, and was approved by the Institutional Animal Care and Use Committee of The Volcani Center, Agricultural Research Organization (IL-135/07, approval date Apr. 11, 2007). All efforts were made to minimize animal suffering and to reduce the number of animals used.
Astrocytes were re-plated at 24-well poly-D-lysine-coated plastic plates at a density of 1×10^5/well, in DMEM w/o Phenol Red containing 2% FBS, 2 mM glutamine, 100 U/mL penicillin, and 100 μg/mL streptomycin. H2O2 in the presence or absence of TTF were added, and cell viability was determined using a commercial colorimetric assay (Roche Applied Science, Germany) according to the manufacturer's instructions. This assay is based on the measurement of lactate dehydrogenase (LDH) activity released from the cytosol of damaged cells into the incubation medium. The absorbance was measured at 492 nm in a plate reader. The percentage of cytotoxicity was calculated according to the following equation, where the “ATriton-x treated cells” is the maximum releasable LDH in the cells:
In order to characterize the ability of TTF to protect against H2O2-induced astrocytic cell death, inventors assessed changes in cell viability using a model in which oxidative stress was induced by the addition of H2O2 to cultures of primary astrocytes. The concentration of H2O2 used in experiments (175-200 μM) resembles the concentration reported in rat striatum under ischemic conditions (Hyslop et al., 1995). […] Following preincubation, H2O2 was added, and cytotoxicity was determined 20 h later using the LDH assay. […] It should be noted that at all concentrations tested, the cytotoxicity of this flavonoid by itself to astrocytes was very low (<11%) as was determined by the LDH method (FIG. 2C). […] The protective activity of TTF was also compared to that of memantine, which is used as a drug for the treatment of Alzheimer's disease.
1. Produce a primary culture of rat brain glial cells according to the method described in “Protective effects of the essential oil of salvia fruticosa and its constituents on astrocytic susceptibility to hydrogen peroxide-induced cell death”. 2009. A. Elmann, S. Mordechay, M. Rindner, O. Larkov, M. Elkabetz, U. Ravid. Journal of agricultural and food chemistry. 57(15):6636-41; 2. Separate astrocytes from other cell types in the culture according to the method described in “Protective effects of the essential oil of salvia fruticosa and its constituents on astrocytic susceptibility to hydrogen peroxide-induced cell death”. 2009. A. Elmann, S. Mordechay, M. Rindner, O. Larkov, M. Elkabetz, U. Ravid. Journal of agricultural and food chemistry. 57(15):6636-41; 3. Incubate the cultured astrocytes (37° C., 5% CO2) for 2 hours with freshly diluted TTF or AcA of the invention; 4. Add 175-200 micromolars of freshly diluted H2O2; 5. Incubate the culture for 20-24 hr (37° C., 5% CO2); 6. Measure cell cytotoxicity and viability by the colorimetric lactate dehydrogenase (LDH) assay (Roche Applied science) according to the manufacturer's instructions, and the crystal violet cell staining as follows: 7. Gently draw out medium from plate; 8. Transfer plate to a chemical hood; 9. Dispense 150 μl 5% formaldehyde (in PBS) to each well and incubate 15 min at RT; 10. Pour out formaldehyde to chemical waste and gently rinse under running tap water; 11. Remove excess water by tapping plate on a tissue paper; 12. Dispense 150 μl crystal violet solution (10 gr/liter, in water) to each well; 13. Incubate 15 min at RT (in the chemical hood); 14. Pour out crystal violet to chemical waste and gently rinse under running tap water until all residual dye is removed; 15. Tap plate on a tissue paper to remove remaining water; 16. […]

N2a neuronal cells = assay: Glutamate-induced ROS elevation in N2a cells; type: cell-based; details: glutamate 100 μM, 20 hr
Protocol: 1. Plate N2a cells (10,000 cells/0.2 ml/well of 96 wells plate) in DMEM (high glucose, 225 ml), Opti-MEM (250 ml) containing 1% Fetal Bovine Serum, 2 mM L-Glutamine, 100 U/ml penicillin and 100 micrograms/mL streptomycin and incubate (37° C., 5% CO2) for 24 hr. 2. Replace growth medium with a fresh one containing 20 micromolars 2′7′-dichlorofluorescein diacetate (DCF-DA); 3. Incubate 30 min (37° C., 5% CO2); 4. Wash twice with PBS; 5. Replace with fresh medium; 6. Read fluorescence of “time 0” at 485 nm (Extinction) and 528 nm (Emmision). 7. Incubate the cultured cells for 2 hours with freshly diluted TTF or AcA of the invention; 8. Add freshly diluted glutamate (100 micromolars); 9. Read fluorescence at 20 hr after the addition of glutamate (100 micromolars) (Ex: 485 nm and Em: 528 nm). 10. A reduction of 55% of ROS levels are indication for an anti-oxidant activity in this assay.
N2a neuronal cells were treated with glutamate (100 μM) and TTF. ROS levels were measured 20 hr later. The results are shown in FIG. 17 and are the mean±SEM of two different experiments (n=16).
N2a neuronal cells were treated with glutamate (100 μM) and achillolide A. ROS levels were measured 20 hr later. […]
Achillolide A was added to N2a cells before (−2 h, −1 h) concomitant (0) or after (1 h, 2 h) the addition of glutamate. ROS levels were measured 20 h later. […]

[1] = 1 μM (lowest concentration tested), compound added 2 h before H2O2
[2] = 8 μM compound added 2 h before H2O2

COc1cc(-c2oc3cc(OC)c(OC)c(O)c3c(=O)c2O)ccc1O [TTF, 3,5,4′-trihydroxy-6,7,3′-trimethoxyflavone]
protection against H2O2-induced cell death (primary astrocytes; [1]): 24% | protection against H2O2-induced cell death (primary astrocytes; [2]): 92% | effect on glutamate-induced ROS elevation (N2a neuronal cells): prevents the elevation in ROS levels

C=C1CCC2=C(CO)C(=O)O[C@H]2/C=C(\C)[C@H](OC(C)=O)CC1=O [achillolide A]
protection of astrocytes from H2O2-induced cell death (primary astrocytes; H2O2 200 μM added 2 h after compound): protects | effect on glutamate-induced ROS elevation (N2a neuronal cells): prevents the elevation in ROS levels

CC12CC3CC(C)(C1)CC(N)(C3)C2 [memantine, reference compound]
protection against H2O2-induced cell death (primary astrocytes; [1]): 48% | protection against H2O2-induced cell death (primary astrocytes; [2]): 58%

O=c1c(O)c(-c2ccc(O)c(O)c2)oc2cc(O)cc(O)c12 [quercetin, 3,3′,4′,5,7-Pentahydroxyflavone, reference compound]
protection against H2O2-induced cell death (primary astrocytes; 10 μM compound added 2 h before H2O2): 36%
